Test results as given in patent publication US20220154296A1, “USE OF ANTI-PD-1 ANTIBODY IN PREPARATION OF MEDICAMENT FOR TREATING SOLID TUMORS” (Shanghai Junshi Biosciences Co., Ltd., priority 2019, published 2022).

Assays:
CT-26 cells = assay: Inhibitory effect on tumor growth in CT-26 cell-transplanted B-hPD-1 mice; format: in vivo
Description: CT-26 cells were seeded subcutaneously on the right side of hPD-1 humanized female mice at a concentration of 2.5×10^5 cells/0.1 mL, and the mice were randomly grouped by tumor volume when tumors grew to about 93 mm^3 with 7 mice per group, for a total of 4 groups:
G1: Anti-KLH hIgG4 (1 mg/kg) negative control group;
G3: palbociclib (100 mg/kg);
The experiment was ended 11 days after the first administration. Tumor volume and body weight of mice were measured and recorded twice a week. At the end of the experiment, animals were euthanized and tumor growth inhibition (TGITv%) was calculated.

[1] = test system: chemotherapy-refractory ESCC; conditions: chemotherapy-refractory ESCC patients in China; cited from earlier work

Molecule: CC(=O)c1c(C)c2cnc(Nc3ccc(N4CCNCC4)cn3)nc2n(C2CCCC2)c1=O [palbociclib, reference compound]
- TGI (%) (CT-26 cells; 11 days after the first administration, toripalimab 1 mg/kg i.p., palbociclib 100 mg/kg orally): 44.8%
- Tumor volume 11 days after the first administration (CT-26 cells; mean ± standard error, toripalimab 1 mg/kg i.p. twice a week, palbociclib 100 mg/kg orally once a day, 7 mice per group): 1550 ± 189 mm^3

B1: SHR-1210: anti-PD-1 antibody SHR-1210, in clinical stage (antibody, chains of the INN, looked up, V domains shown)
VH: EVQLVESGGGLVQPGGSLRLSCAASGFTFSSYMMSWVRQAPGKGLEWVATISGGGANTYYPDSVKGRFTISRDNAKNSLYLQMNSLRAEDTAVYYCARQLYYFDYWGQGTTVTVSS
VL: DIQMTQSPSSLSASVGDRVTITCLASQTIGTWLTWYQQKPGKAPKLLIYTATSLADGVPSRFSGSGSGTDFTLTISSLQPEDFATYYCQQVYSIPWTFGGGTKVEIK
- Anti-tumor activity [1]: effective anti-tumor activity
- Safety [1]: controllable safety
